This is an account of results in article PMC3777804 (Journal of computer-aided molecular design, 2013).

For the experiment, the system named is cell-cell fusion of TZM-bl target cells and HL2/3 effector cells (HXB2 Env). The experiment in a line: cell-cell fusion, luciferase reporter. Type of experiment: cell-based, HIV-1. To be noted: read-out: IC50 CCF, 6 hours, 1% DMSO, results ±50%. (In general: A reporter such as luciferase makes a cellular process visible.)

Regarding [Trp]-Phe, the IC50 (in general, the concentration that gives 50% inhibition) is 4 µM.
To [Phe]-Trp belongs 9 µM.
To [Trp]-Trp belongs 19 µM.
